Experimental data: patent publication US11485745B2, “Amido spirocyclic amide and sulfonamide derivatives” (Valo Health, Inc., priority 2012, dated 2022)

These molecules were tested on A2780 cells (assay: In-Vitro Cell Proliferation Assay (A2780, sulforhodamine B, 72 hours)). Conditions: Homo sapiens, A2780, 72 h, SRB.
Format: cell-based

IC50	SMILES
2000 nM	CC(C)C(=O)N1CCC2(CC1)CC2CNC(=O)c1cc2cnccc2[nH]1 (stereo not drawn) [Example 12]
2000 nM	CCS(=O)(=O)N1CCC2(CC1)CC2CNC(=O)c1cc2cnccc2[nH]1 (stereo not drawn) [Example 14, N-[(8-ethylsulfonyl-8-azasprio[2.5]octan-2-yl)methyl]-1H-pyrrolo[3,2-c]pyridine-2-carboxamide]
2000 nM	CCC(=O)N1CCC2(CC1)CC2CNC(=O)c1cc2cnccc2[nH]1 (stereo not drawn) [Example 20]
13.7 nM	CN(C)Cc1ccc(C(=O)N2CCC3(CC2)CC3CNC(=O)c2cc3ccncc3o2)cc1 (stereo not drawn) [Example 71, N-[[6-[4-[(dimethylamino)methyl]benzoyl]-6-azaspiro[2.5]octan-2-yl]methyl]furo[2,3-c]pyridine-2-carboxamide]
9.61 nM	O=C(CCC1CCCCC1)N1CCC2(CC1)CC2CNC(=O)N1Cc2ccncc2C1 (stereo not drawn) [Example 197, N-[[6-(3-cyclohexylpropanoyl)-6-azaspiro[2.5]octan-2-yl]methyl]-1,3-dihydropyrrolo[3,4-c]pyridine-2-carboxamide]
184 nM	O=C(CCc1ccccc1)N1CCC2(CC1)CC2CNC(=O)N1Cc2ccncc2C1 (stereo not drawn) [Example 199, N-[[6-(3-phenylpropanoyl)-6-azaspiro[2.5]octan-2-yl]methyl]-1,3-dihydropyrrolo[3,4-c]pyridine-2-carboxamide]
203 nM	O=C(CCc1cccnc1)N1CCC2(CC1)CC2CNC(=O)N1Cc2ccncc2C1 (stereo not drawn) [Example 209, N-[[6-[3-(3-pyridyl)propanoyl]-6-azaspiro[2.5]octan-2-yl]methyl]-1,3-dihydropyrrolo[3,4-c]pyridine-2-carboxamide]
50.9 nM	CC(C)(O)CCC(=O)N1CCC2(CC1)CC2CNC(=O)N1Cc2ccncc2C1 (stereo not drawn) [Example 360, N-[[6-(4-hydroxy-4-methyl-pentanoyl)-6-azaspiro[2.5]octan-2-yl]methyl]-1,3-dihydropyrrolo[3,4-c]pyridine-2-carboxamide]
1.59 nM	CC1(C)CC1C(=O)N1CCC2(CC1)CC2CNC(=O)N1Cc2ccncc2C1 (stereo not drawn) [Example 377, N-[[6-(2,2-dimethylcyclopropanecarbonyl)-6-azaspiro[2.5]octan-2-yl]methyl]-1,3-dihydropyrrolo[3,4-c]pyridine-2-carboxamide]
2000 nM	CC(C)(C)CS(=O)(=O)N1CCC2(CC1)CC2CNC(=O)c1cc2ccncc2[nH]1 (stereo not drawn) [Example 379, N-[[6-(2,2-dimethylpropylsulfonyl)-6-azaspiro[2.5]octan-2-yl]methyl]-1H-pyrrolo[3,2-c]pyridine-2-caarboxamide]
55.4 nM	CC(C)(C)CS(=O)(=O)N1CCC2(CC1)CC2CNC(=O)N1Cc2ccncc2C1 (stereo not drawn) [Example 381, N-[[6-(2,2-dimethylpropylsulfonyl)-6-azaspiro[2.5]octan-2-yl]methyl]-1,3-dihydropyrrolo[3,4-c]pyridine-2-carboxamide]
18.5 nM	CC(C)(O)COCC(=O)N1CCC2(CC1)CC2CNC(=O)N1Cc2ccncc2C1 (stereo not drawn) [Example 393, N-[[6-[2-(2-hydroxy-2-methyl-propoxy)acetyl]-6-azaspiro[2.5]octan-2-yl]methyl]-1,3-dihydropyrrolo[3,4-c]pyridine-2-carboxamide]
17.5 nM	O=C(NCC1CC12CCN(C(=O)c1cc(C(F)(F)F)[nH]n1)CC2)N1Cc2ccncc2C1 (stereo not drawn) [Example 396, N-[[6-[5-(trifluoromethyl)-1H-pyrazole-3-carbonyl]-6-azaspiro[2.5]octan-2-yl]methyl]-1,3-dihydropyrrolo[3,4-c]pyridine-2-carboxamdie]
2000 nM	CC(C)(O)COC(=O)N1CCC2(CC1)CC2CNC(=O)c1cc2cnccc2[nH]1 (stereo not drawn) [Example 401, (2-hydroxy-2-methyl-propyl) 2-[(1H-pyrrolo[3,2-c]pyridine-2-carbonylamino)methyl]-6-azaspiro[2.5]octane-6-carboxylate]

Same assay, conditions: SRB

IC50	SMILES
7.03 nM	CC1(C)CC1C(=O)N1CCC2(CC1)CC2CNC(=O)c1cc2ccncc2o1 (stereo not drawn) [Example 373, N-[[6-(2,2-dimethylcyclopropanecarbonyl)-6-azaspiro[2.5]octan-2-yl]methyl]furo[2,3-c]pyridine-2-carboxamide]
